Laboratory results as given in patent publication US10292390B2, “Inhibition and dispersion of bacterial biofilms with 2-aminobenzimidazole derivatives” (WISCONSIN ALUMNI RESEARCH FOUNDATION, priority 2011, dated 2019).
Like-named read-outs stand apart in the source and are kept apart here.

How the values were obtained:
[1] = tested on: P. aeruginosa PAO1 biofilm; experiment: crystal violet static biofilm inhibition assay; assay type: cell-based, Pseudomonas aeruginosa; settings: for IC50: Pseudomonas aeruginosa, PAO1; for anti-biofilm (biofilm inhibitory) activity in words: initial screen at 500 μM, 12 and 24 h; for inhibition of biofilm growth: at 100 micro M, 24 h
Experimental: Stilbenes 1, 2, and 4a-b were tested for inhibition of biofilm formation in a wild-type P. aeruginosa strain (PAO1) at 500 μM using standard static biofilm growth assays.
Biofilms were grown in a modified M9 minimal media in 96-well microtiter plates, and crystal violet staining of the surface-associated biomass was used to quantify biofilm growth at 12 and 24 h (see The Examples).
A modified version of the widely used crystal violet (CV) microtiter plate biofilm assay, first described by Christensen et al. and later popularized by O'Toole et al., [57] was used in this study and is described in detail below.
Compounds to be evaluated for biofilm modulatory activity were added to the assay microtiter plates by means of a “solvent evaporation” delivery. This delivery method involves preparation of compound stock solutions, addition of stocks to microtiter plates at appropriate volumes to obtain target molar quantities per well, evaporation of the solvent, and re-solubilization of the compound in the final assay medium upon inoculum addition. This delivery method was adopted to avoid the biofilm inhibitory effects observed with an “organic solvent-to-solution” delivery method (e.g., DMSO-to-media; data not shown), which is more commonly done in small molecule screens. EtOH was chosen as the solvent for solvent evaporation delivery in this study based on the chemical resistance limitations of polystyrene microtiter plates. Prior to each experiment, EtOH stock solutions of compounds being evaluated were prepared, diluted, and added to microtiter plates at varied volumes to obtain a target final concentration per well upon inoculum addition. Plates were incubated at 37° C. to evaporate EtOH and sterilized in a Baker SterilGARD III Advance Biological Safety Cabinet by UV-C germicidal irradiation for 30 min (lids removed). EtOH only was added to wells designated as “no compound” positive controls (Pos. Con.) and “no bacteria” negative controls (note, controls lacking bacteria yielded no significant staining in the CV assay (data not shown)). The outer wells were never used for test samples as evaporation and significant deviations in growth were observed; thus, outer wells were filled with sterile 18 MΩ H2O to minimize these effects.
Bacterial samples for biofilm assessment were prepared by first streaking a freezer stock of P. aeruginosa PAO1 on an LB/agar plate and incubating at 37° C. for ˜16 h. Single colonies were selected and used to inoculate LB medium (10 mL) in a 25 mL Erlenmeyer flask. The culture was grown on an incubator-shaker (200 rpm) at 37° C. for ˜16 h to an OD600 of ˜1.0. Overnight cultures were gently decanted into falcon tubes to minimize transfer of biofilm produced during overnight growth. An inoculating culture was prepared by centrifuging an aliquot of overnight culture at 3,000 rpm for 10 min, removal of the supernatant, and then re-suspending the pellet in 95:5 M9+:LB at 10-fold the initial volume (effecting a 1-in-10 dilution; OD600 ˜0.1-0.2). Using a multi-channel pipette, this culture was added to test microtiter plates in 200 μL aliquots. The well contents were mixed using a 10 μL multi-channel pipette in a swirling motion; insoluble compound samples were noted and later excluded from the data set as needed.
Plates were covered with the provided lid and incubated statically at 37° C. for 12-24 h. Maximal biofilm formation is obtained at 24 h, after which the amount of biofilm declines unless fresh nutrients are provided. After incubation, the OD600 was measured, and the bacterial suspension was removed by inverting and shaking the plate over a waste pan and then taping on a paper towel (process termed “dumping”). Non-biofilm associated biomaterial was removed by adding 225 μL PBS and dumping (process termed “washing”) and then repeating this washing process. Biofilm was fixed to the microtiter plates by uncovering the plate and thermally dehydrating at 37° C. […]

Gram-positive bacteria = settings: WO 2010/144686 (7); ref. 34 (18); cited from earlier work
[2] = 12 h incubation, CV assay, read-out: 12 h biofilm IC50
[3] = 24 h incubation, CV assay, read-out: 24 h biofilm IC50
[4] = Table 1, crystal violet, read-out: IC50, P. aeruginosa PAO1 biofilm inhibition

| Compound | IC50 [1, 2] [µM] | IC50 [1, 3] [µM] | IC50 [1, 4] [µM] | anti-biofilm (biofilm inhibitory) activity in words [1] | biofilm inhibition in Gram-positive bacteria as reported (Gram-positive bacteria) | inhibition of biofilm growth [1] [%] |
| --- | --- | --- | --- | --- | --- | --- |
| COc1ccc2[nH]c(N)nc2c1 [Compound 22, 5-Methoxy-2-aminobenzimidazole] | 73.8 | 80.1 | 80 |  |  |  |
| C(=C\c1ccc2nc[nH]c2c1)/c1ccccc1 [Compound 5, 6-Styryl-1H-benzimidazole] |  |  |  | complete loss of inhibitory activity |  |  |
| Nc1nc2cc(Cl)ccc2[nH]1 [Compound 12, 5-Chloro-2-aminobenzimidazole] | 25.7 | 27.5 | 28 |  |  |  |
| COc1ccc2[nH]c(=S)[nH]c2c1 [Compound 5-OMe-2-TBI, reference compound] |  |  |  | significantly less active than 2-ABI derivatives |  |  |
| C(=Cc1ccccc1)c1ccccc1 [Compound 6, Stilbene, reference compound] |  |  |  | complete loss of inhibitory activity |  |  |
| Nc1nc2cc([N+](=O)[O-])ccc2[nH]1 [Compound 18, 5-Nitro-2-aminobenzimidazole] | 49.6 | 63.1 | 63 |  | reported to be a biofilm inhibitor in Gram-positive bacteria |  |
| Nc1nc2ccc(/C=C/c3ccccc3)cc2[nH]1 [Compound 1, 6-Styryl-2-aminobenzimidazole] | 13 | 8.9 |  |  |  | 56 |
| Nc1nc(-c2ccc(/C=C/c3ccccc3)cc2)c[nH]1 [Compound 2, 4-(E)-Stilbene-2-aminoimidazole] | 3.8 | 18 |  |  |  | 48 |
| C(=C\c1ccc2[nH]ccc2c1)/c1ccccc1 [Compound 4a, 5-Styryl-1H-indole] |  |  |  | Neither indole, derivative (4a-b), however, showed appreciable anti-biofilm activity |  |  |
| Nc1nc2cc(Br)ccc2[nH]1 [Compound 11, 5-Bromo-2-aminobenzimidazole] | 22 | 22.2 | 22 |  |  |  |
| Nc1nc2cc(I)ccc2[nH]1 [Compound 10, 5-Iodo-2-aminobenzimidazole] | 26.3 | 20.3 | 20 |  |  |  |
| S=c1[nH]c2ccccc2[nH]1 [Compound 2-TBI, 2-thiobenzamidazole, reference compound] |  |  |  | significantly less active than 2-ABI derivatives |  |  |
| Nc1nc2cc3ccccc3cc2[nH]1 [Compound 24, 2-Amino-1H-naphtho[2,3-d]imidazole] | 54.5 | 48.3 | 48 |  |  |  |
| N=C(N)N [Compound 9, Guanidine, reference compound] |  |  |  | neither 2-AI (8) nor guanidine (9) was found to display significant inhibitory activity |  |  |
| Nc1nc2cc(F)ccc2[nH]1 [Compound 13, 5-Fluoro-2-aminobenzimidazole] | 30.2 | 35.2 | 35 |  |  |  |
| C(=C\c1ccc2cc[nH]c2c1)/c1ccccc1 [Compound 4b, 6-Styryl-1H-indole] |  |  |  | Neither indole, derivative (4a-b), however, showed appreciable anti-biofilm activity |  |  |
| Nc1nc2cc(C(=O)O)ccc2[nH]1 [Compound 16, 5-Carboxylic acid-2-aminobenzimidazole] |  |  |  | total loss |  |  |
| Nc1ncc[nH]1 [Compound 8, 2-aminoimidazole, reference compound] |  |  |  | neither 2-AI (8) nor guanidine (9) was found to display significant inhibitory activity |  |  |
| Cc1ccc2[nH]c(N)nc2c1 [Compound 20, 5-Methyl-2-aminobenzimidazole] | 27.3 | 25.4 | 25 |  |  |  |
| COC(=O)c1ccc2[nH]c(N)nc2c1 [Compound 15, 5-Carboxylic acid methyl ester-2-aminobenzimidazole] | 186 | 139 | 140 |  |  |  |
| N#Cc1ccc2[nH]c(N)nc2c1 [Compound 17, 5-Cyano-2-aminobenzimidazole] | 199 | 175 | 180 |  |  |  |
| Cc1cccc2[nH]c(N)nc12 [Compound 19, 4-Methyl-2-aminobenzimidazole] | 37.6 | 38.7 | 39 |  |  |  |
